Experiment [1] deals with human CD4+ T cells. Kind of experiment: Human CD4+ T-cell proliferation assay (CFSE, CD3/28 beads). The conditions noted are these: read-out: Proliferation IC50.
Method: Cells were incubated at room temperature for 8 minutes in a rotator in the dark. 13 mL cRPMI was added to each tube and cells were centrifuged at 500×g for 4 minutes at room temperature before pellets were resuspended in 10 mL cRPMI. Cells were counted using the Auto2000 Cellometer and AO/PI viability stain and concentration adjusted to 0.6×10^6 cells/mL in cRPMI. […] Control wells were included for flow cytometry and edge wells were filled with 200 μL 1×dPBS. Cells were incubated at 37° C., 5% CO2 for 2 days before compound treatment. […] Cells were incubated at 37° C., 5% CO2 for a further 2 days prior to flow staining and supernatant harvest.
On the final day plates were centrifuged at 500×g for 4 minutes at room temperature. 125 μL of supernatants were transferred to a V bottom 96 well polystyrene plate and stored at −80° C. Plates were gently vortexed to disrupt the cell pellets before 125 μL 1×PBS was added to each well. Plates were centrifuged at 500×g for 4 minutes at room temperature and supernatants removed from the plates by aspirating. Plates were gently vortexed and 30 μL of live/dead stain (Invitrogen, L34975) in 1×dPBS was added and incubated for 15 minutes in the dark at 4° C. […] 100 μL of flow cytometry buffer was added and plates were centrifuged at 500×g for 4 minutes before supernatants were aspirated from the plates. Wells were resuspended in 200 μL flow cytometry buffer and plates stored at 4° C. before being run on the flow cytometer.
Data was analysed using FlowJo and the compensation matrix applied to all samples. The gates were set using unstained and unstimulated samples.
Experiment [2] has as its target T1, MTHFD1 recombinant human enzyme (Homo sapiens, UniProt P11586).
T1 sequence (P11586 2-291 limits assumed): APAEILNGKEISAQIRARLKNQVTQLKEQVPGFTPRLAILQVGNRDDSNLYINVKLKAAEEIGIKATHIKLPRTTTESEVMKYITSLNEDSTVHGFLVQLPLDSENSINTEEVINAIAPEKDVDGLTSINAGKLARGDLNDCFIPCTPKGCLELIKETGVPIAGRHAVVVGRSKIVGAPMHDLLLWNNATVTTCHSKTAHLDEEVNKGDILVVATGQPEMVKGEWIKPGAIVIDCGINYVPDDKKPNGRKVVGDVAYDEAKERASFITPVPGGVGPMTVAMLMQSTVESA
The experiment in a line: MTHFD1 inhibition assay (NAD(P)H-Glo luminescence). The conditions noted are these: MTHFD1 IC50, recombinant human enzyme 200 nM, NADP, band.

Experiment [3] has as its target T2, MTHFD2 recombinant human enzyme (Homo sapiens, UniProt P13995).
T2 sequence (P13995 36-350): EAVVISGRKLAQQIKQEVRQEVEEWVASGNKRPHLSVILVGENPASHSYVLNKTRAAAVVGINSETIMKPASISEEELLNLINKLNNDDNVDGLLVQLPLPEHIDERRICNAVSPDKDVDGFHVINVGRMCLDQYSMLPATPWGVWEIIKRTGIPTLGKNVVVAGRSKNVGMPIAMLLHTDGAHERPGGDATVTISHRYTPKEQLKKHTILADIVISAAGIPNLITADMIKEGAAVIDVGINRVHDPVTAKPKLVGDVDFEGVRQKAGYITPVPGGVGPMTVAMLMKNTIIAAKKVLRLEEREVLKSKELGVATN
Kind of experiment: MTHFD2 inhibition assay (NAD(P)H-Glo luminescence). The conditions noted are these: for MTHFD1/MTHFD2 IC50 ratio: selectivity of MTHFD2 inhibition over MTHFD1, band.

On to `COC[C@H]1CN(c2cc(Cl)c3c4c(c(=O)oc3c2C)CN(C(=O)c2cc(N(C)C)c(C(=O)NS(=O)(=O)N(C)C)cc2F)CC4)CCN1C` [Example 260, (R)-4-(10-chloro-8-(3-(methoxymethyl)-4-methylpiperazin-1-yl)-7-methyl-5-oxo-1,3,4,5-tetrahydro-2H-chromeno[3,4-c]pyridine-3-carbonyl)-2-(dimethylamino)-N-(N,N-dimethylsulfamoyl)-5-fluorobenzamide], for which the values for the IC50 in experiment [1], in experiment [2] and in experiment [3] were 10 to 30 nM, 100 to 1000 nM and 1 to 10 nM, respectively. Further, in experiment [3], the “MTHFD1/MTHFD2 IC50 ratio” value is “J (>30)”.
`COC[C@H]1CN(c2cc(Cl)c3c4c(c(=O)oc3c2C)CN(C(=O)c2cc(OC)c(C(=O)NS(=O)(=O)N3CCCC3)cc2F)CC4)CCN1C` [Example 262, (R)-4-(10-chloro-8-(3-(methoxymethyl)-4-methylpiperazin-1-yl)-7-methyl-5-oxo-1,3,4,5-tetrahydro-2H-chromeno[3,4-c]pyridine-3-carbonyl)-5-fluoro-2-methoxy-N-(pyrrolidin-1-ylsulfonyl)benzamide]: the IC50 lay in the range of 30 to 100 nM in experiment [1], 1000 to 5000 nM in experiment [2] and 1 to 10 nM in experiment [3]. Further, in experiment [3], the “MTHFD1/MTHFD2 IC50 ratio” value was “J (>30)”.
On to `COC[C@H]1CN(c2cc(C)c3c4c(c(=O)oc3c2C)CN(C(=O)c2cc(OC3CC3)c(C(=O)NS(=O)(=O)N3CCCC3)cc2F)CC4)CCN1C` [Example 263, (R)-2-cyclopropoxy-5-fluoro-4-(8-(3-(methoxymethyl)-4-methylpiperazin-1-yl)-7,10-dimethyl-5-oxo-1,3,4,5-tetrahydro-2H-chromeno[3,4-c]pyridine-3-carbonyl)-N-(pyrrolidin-1-ylsulfonyl)benzamide], for which the IC50 lay in the range of 10 to 30 nM in experiment [1], 10 to 100 nM in experiment [2] and 1 to 10 nM in experiment [3]. Moreover, in experiment [3], the “MTHFD1/MTHFD2 IC50 ratio” value is “J (>30)”.
Consider `COC[C@H]1CN(c2cc(C)c3c4c(c(=O)oc3c2C)CN(C(=O)c2cc(OC3CC3)c(C(=O)NS(=O)(=O)N3CC5CC5C3)cc2F)CC4)CCN1C` (stereo partly drawn) [Example 264, N-((3-azabicyclo[3.1.0]hexan-3-yl)sulfonyl)-2-cyclopropoxy-5-fluoro-4-(8-((R)-3-(methoxymethyl)-4-methylpiperazin-1-yl)-7,10-dimethyl-5-oxo-1,3,4,5-tetrahydro-2H-chromeno[3,4-c]pyridine-3-carbonyl)benzamide], for which the IC50 in experiment [1] was 10 to 30 nM; in experiment [2], 10 to 100 nM; in experiment [3] it was 1 to 10 nM. The “MTHFD1/MTHFD2 IC50 ratio” value in experiment [3] was “J (>30)”.
Regarding `COC[C@H]1CN(c2cc(C)c3c4c(c(=O)oc3c2C)CN(C(=O)c2ccc(C(=O)NS(=O)(=O)N3CCCC3)c(F)c2)CC4)CCN1C` [Example 265, (R)-2-fluoro-4-(8-(3-(methoxymethyl)-4-methylpiperazin-1-yl)-7,10-dimethyl-5-oxo-1,3,4,5-tetrahydro-2H-chromeno[3,4-c]pyridine-3-carbonyl)-N-(pyrrolidin-1-ylsulfonyl)benzamide], the results for the IC50 in experiment [1], in experiment [2] and in experiment [3] were 100 to 1000 nM, 100 to 1000 nM and 1 to 10 nM, respectively. Further, the “MTHFD1/MTHFD2 IC50 ratio” value in experiment [3] was “J (>30)”.
`COC[C@H]1CN(c2cc(C)c3c4c(c(=O)oc3c2C)CN(C(=O)c2cc(F)c(C(=O)NS(=O)(=O)N3CCCC3)cc2OC)CC4)CCN1C` [Example 266, (R)-2-fluoro-5-methoxy-4-(8-(3-(methoxymethyl)-4-methylpiperazin-1-yl)-7,10-dimethyl-5-oxo-1,3,4,5-tetrahydro-2H-chromeno[3,4-c]pyridine-3-carbonyl)-N-(pyrrolidin-1-ylsulfonyl)benzamide]: the IC50 in experiment [1] lay in the range of 1000 to 5000 nM; in experiment [2], 100 to 1000 nM; in experiment [3] it was 1 to 10 nM. In experiment [3], the “MTHFD1/MTHFD2 IC50 ratio” value is “J (>30)”.
Take `CCOc1cc(C(=O)N2CCc3c(c(=O)oc4c(C)c(N5CCN(C)[C@@H](COC)C5)cc(C)c34)C2)c(F)cc1C(=O)NS(=O)(=O)N1C[C@@H]2C[C@H]1CO2` [Example 267, N-(((1S,4S)-2-oxa-5-azabicyclo[2.2.1]heptan-5-yl)sulfonyl)-2-ethoxy-5-fluoro-4-(8-((R)-3-(methoxymethyl)-4-methylpiperazin-1-yl)-7,10-dimethyl-5-oxo-1,3,4,5-tetrahydro-2H-chromeno[3,4-c]pyridine-3-carbonyl)benzamide]: the IC50 was in the range of 100 to 1000 nM in experiment [1], 100 to 1000 nM in experiment [2] and 1 to 10 nM in experiment [3]. Further, in experiment [3], the “MTHFD1/MTHFD2 IC50 ratio” value is recorded as “J (>30)”.
With `CCOc1cc(C(=O)N2CCc3c(c(=O)oc4c(C)c(N5CCN(C)[C@@H](COC)C5)cc(C)c34)C2)c(F)cc1C(=O)NS(=O)(=O)N1CC[C@H](F)C1` [Example 268, 2-ethoxy-5-fluoro-N-(((S)-3-fluoropyrrolidin-1-yl)sulfonyl)-4-(8-((R)-3-(methoxymethyl)-4-methylpiperazin-1-yl)-7,10-dimethyl-5-oxo-1,3,4,5-tetrahydro-2H-chromeno[3,4-c]pyridine-3-carbonyl)benzamide], the IC50 in experiment [1] lay within 1 to 10 nM; in experiment [2], 100 to 1000 nM; in experiment [3], 1 to 10 nM. In addition, the “MTHFD1/MTHFD2 IC50 ratio” value in experiment [3] was “J (>30)”.
On to `COC[C@H]1CN(c2cc(C)c3c4c(c(=O)oc3c2C)CN(C(=O)c2cc(F)c(C(=O)NS(=O)(=O)N3CCCC3)cc2C)CC4)CCN1C` [Example 270, (R)-2-fluoro-4-(8-(3-(methoxymethyl)-4-methylpiperazin-1-yl)-7,10-dimethyl-5-oxo-1,3,4,5-tetrahydro-2H-chromeno[3,4-c]pyridine-3-carbonyl)-5-methyl-N-(pyrrolidin-1-ylsulfonyl)benzamide], for which the figures for the IC50 in experiment [1], in experiment [2] and in experiment [3] were 1000 to 5000 nM, 1000 to 5000 nM and 1 to 10 nM, respectively. The “MTHFD1/MTHFD2 IC50 ratio” value in experiment [3] is given as “J (>30)”.
In the case of `COC[C@H]1CN(c2cc(C)c3c4c(c(=O)oc3c2C)CN(C(=O)c2cc(N(C)C)c(C(=O)NS(=O)(=O)N(C3CC3)C3CC3)cc2F)CC4)CCN1C` [Example 276, (R)-N-(N,N-dicyclopropylsulfamoyl)-2-(dimethylamino)-5-fluoro-4-(8-(3-(methoxymethyl)-4-methylpiperazin-1-yl)-7,10-dimethyl-5-oxo-1,3,4,5-tetrahydro-2H-chromeno[3,4-c]pyridine-3-carbonyl)benzamide], the IC50 fell in the range of 1 to 10 nM in experiment [1], 100 to 1000 nM in experiment [2] and 10 to 100 nM in experiment [3]. Also, the “MTHFD1/MTHFD2 IC50 ratio” value in experiment [3] is “H (>9.0 to 30)”.
As to `COC[C@H]1CN(c2cc(C)c3c4c(c(=O)oc3c2C)CN(C(=O)c2cc(N(C)C)c(C(=O)NS(=O)(=O)N3CCC[C@H](OC)C3)cc2F)CC4)CCN1C` [Example 281, 2-(dimethylamino)-5-fluoro-4-(8-((R)-3-(methoxymethyl)-4-methylpiperazin-1-yl)-7,10-dimethyl-5-oxo-1,3,4,5-tetrahydro-2H-chromeno[3,4-c]pyridine-3-carbonyl)-N-(((S)-3-methoxypiperidin-1-yl)sulfonyl)benzamide], the IC50 was 1 to 10 nM in experiment [1], 100 to 1000 nM in experiment [2] and 10 to 100 nM in experiment [3]. The “MTHFD1/MTHFD2 IC50 ratio” value in experiment [3] is “H (>9.0 to 30)”.
Regarding `COC[C@H]1CN(c2cc(Cl)c3c4c(c(=O)oc3c2C)CN(C(=O)c2cc(N(C)C)c(C(=O)NS(=O)(=O)N(C)C)cc2Cl)CC4)CCN1C` [Example 291, (R)-5-chloro-4-(10-chloro-8-(3-(methoxymethyl)-4-methylpiperazin-1-yl)-7-methyl-5-oxo-1,3,4,5-tetrahydro-2H-chromeno[3,4-c]pyridine-3-carbonyl)-2-(dimethylamino)-N-(N,N-dimethylsulfamoyl)benzamide], the IC50 was 30 to 100 nM in experiment [1], 1000 to 5000 nM in experiment [2] and 10 to 100 nM in experiment [3]. Also, in experiment [3], the “MTHFD1/MTHFD2 IC50 ratio” value was “J (>30)”.
On to `COC[C@H]1CN(c2cc(C)c3c4c(c(=O)oc3c2C)CN(C(=O)c2cc(N(C)C)c(C(=O)NS(=O)(=O)N3CCC[C@H]3C(F)(F)F)cc2F)CC4)CCN1C` [Example 292, 2-(dimethylamino)-5-fluoro-4-(8-((R)-3-(methoxymethyl)-4-methylpiperazin-1-yl)-7,10-dimethyl-5-oxo-1,3,4,5-tetrahydro-2H-chromeno[3,4-c]pyridine-3-carbonyl)-N-(((S)-2-(trifluoromethyl)pyrrolidin-1-yl)sulfonyl)benzamide], for which the values for the IC50 in experiment [1], in experiment [2] and in experiment [3] were 1 to 10 nM, 100 to 1000 nM and 10 to 100 nM, respectively. Moreover, the “MTHFD1/MTHFD2 IC50 ratio” value in experiment [3] is listed as “J (>30)”.
The like results for `COC[C@H]1CN(c2cc(Cl)c3c4c(c(=O)oc3c2C)CN(C(=O)c2cc(N(C)C)c(C(=O)NS(=O)(=O)N3C[C@H]5C[C@@H]3CO5)cc2F)CC4)CCN1C` [Example 294, N-(((1R,4R)-2-oxa-5-azabicyclo[2.2.1]heptan-5-yl)sulfonyl)-4-(10-chloro-8-((R)-3-(methoxymethyl)-4-methylpiperazin-1-yl)-7-methyl-5-oxo-1,3,4,5-tetrahydro-2H-chromeno[3,4-c]pyridine-3-carbonyl)-2-(dimethylamino)-5-fluorobenzamide] were, in that order, 10 to 30 nM, 100 to 1000 nM, 10 to 100 nM and “J (>30)”.

(Values after patent US12662489B2 (Sitryx Therapeutics Limited, priority 2023, dated 2026).)
